According to patent publication US20110166112A1, “METHOD FOR STIMULATING PLATELET PRODUCTION” (Eisai, Inc., priority 2009, published 2011):

System: subjects with chronic ITP
Experiment: Combined 28-day and 6-month rollover studies of E5501: safety (TEAEs, serious TEAEs, thromboembolic events, neoplasms, liver toxicity, discontinuations)
Format: in vivo, human
Text: Primary Endpoint: The primary endpoint was to assess the safety and tolerability to E5501, including AEs and clinical laboratory parameters, over the 6 additional months of treatment.
In this way, safety data reflect each subject's complete duration of exposure to E5501 starting with lead-in the previous study and continuing into the current study.
Following Protocol Amendment 4, the current study contained a flexible dose regimen; therefore, this study was considered to have an open-label, uncontrolled, single-arm design. […] This was the method used to assess safety. • Grouping method B was based on both treatment received and day 28 platelet response to study drug in Study the previous study. This was the method used for the analysis of efficacy for the FAS and the SE population.
Overall Adverse Events. […] The primary focus is on summary statistics for the entire safety population and provides an overall safety profile for E5501. The summary statistics for each group, e.g., lower ⅓, middle ⅓ and upper ⅓ average daily dose levels, is secondary and provides further safety information across the 3 dose levels.

[1] = Middle ⅓ dose (≧8.85-<13.5 mg), N=22
[2] = Safety Population, Middle ⅓ Mean Daily Dose Level (≧8.85-<13.5 mg)
[3] = Upper ⅓ dose (≧13.5-≦25.7 mg), N=20
[4] = combined studies, E5501-treated subjects overall
[5] = one subject, 5 mg/day, approximately 21 days after initiation, grade 2
[6] = one subject, 20 mg/day, approximately 164 days after initiation, grade 3

## O=C(Nc1nc(-c2cc(Cl)cs2)c(N2CCN(C3CCCCC3)CC2)s1)c1cnc(N2CCC(C(=O)O)CC2)c(Cl)c1 [E5501, 1-(3-chloro-5-{[4-(4-chlorothiophen-2-yl)-5-(4-cyclohexylpiperazin-1-yl)thiazol-2-yl]carbamoyl}pyridine-2-yl)piperidine-4-carboxylic acid]
[1]
  Vomiting, % of subjects: (9.1) %
  Vomiting, n of subjects: 2
  Withdrawal due to TEAE, % of subjects: (9.1) %
  Withdrawal due to TEAE, n of subjects: 2
Safety Population, Lower ⅓ Mean Daily Dose Level (2.5-<8.85 mg)
  Discontinuation in 501-CL-003, PC increase to ≧500,000/mm^3: 0 n
[2]
  Discontinuation in 501-CL-003, PC increase to ≧500,000/mm^3: 0 n
  Discontinuation in 501-CL-004, PC increase to ≧500,000/mm^3: 0 n
Safety Population, Upper ⅓ Mean Daily Dose Level (≧13.5-≦25.7 mg)
  Discontinuation in 501-CL-003, Adverse Event or SAE: 0 n
Total E5501, N=64
  Abdominal pain upper, % of subjects: (4.7) %
  Abdominal pain upper, n of subjects: 3
  Any TEAE, % of subjects: (96.9) %
  Any TEAE, n of subjects: 62
  Arthralgia, % of subjects: (14.1) %
  Arthralgia, n of subjects: 9
  Asthenia, % of subjects: (6.3) %
  Asthenia, n of subjects: 4
  Back pain, % of subjects: (9.4) %
  Back pain, n of subjects: 6
  Constipation, % of subjects: (4.7) %
  Constipation, n of subjects: 3
  Contusion, % of subjects: (18.8) %
  Contusion, n of subjects: 12
  Cough, % of subjects: (4.7) %
  Cough, n of subjects: 3
  Deaths, n of subjects: 0
  Diarrhoea, % of subjects: (14.1) %
  Diarrhoea, n of subjects: 9
  Dizziness, % of subjects: (7.8) %
  Dizziness, n of subjects: 5
  Dose interruption due to TEAE, % of subjects: (12.5) %
  Dose interruption due to TEAE, n of subjects: 8
  Dyspnoea, % of subjects: (9.4) %
  Dyspnoea, n of subjects: 6
  Ecchymosis, % of subjects: (6.3) %
  Ecchymosis, n of subjects: 4
  Epistaxis, % of subjects: (23.4) %
  Epistaxis, n of subjects: 15
  Fatigue, % of subjects: (34.4) %
  Fatigue, n of subjects: 22
  Gingival bleeding, % of subjects: (10.9) %
  Gingival bleeding, n of subjects: 7
  Headache, % of subjects: (32.8) %
  Headache, n of subjects: 21
  Insomnia, % of subjects: (7.8) %
  Insomnia, n of subjects: 5
  Migraine, % of subjects: (4.7) %
  Migraine, n of subjects: 3
  Mouth haemorrhage, % of subjects: (3.1) %
  Mouth haemorrhage, n of subjects: 2
  Nausea, % of subjects: (9.4) %
  Nausea, n of subjects: 6
  Pain in extremity, % of subjects: (9.4) %
  Pain in extremity, n of subjects: 6
  Petechiae, % of subjects: (9.4) %
  Petechiae, n of subjects: 6
  Platelet count increased, % of subjects: (9.4) %
  Platelet count increased, n of subjects: 6
  Serious TEAE, % of subjects: (7.8) %
  Serious TEAE, n of subjects: 5
  Serious treatment-related TEAEs, % of subjects: (3.1) %
  Serious treatment-related TEAEs, n of subjects: 2
  Severe (grade 3-4) TEAEs, % of subjects: (25.0) %
  Severe (grade 3-4) TEAEs, n of subjects: 16
  Somnolence, % of subjects: (3.1) %
  Somnolence, n of subjects: 2
  Suspected drug-related AEs, % of subjects: (64.1) %
  Suspected drug-related AEs, n of subjects: 41
  Upper respiratory tract infection, % of subjects: (9.4) %
  Upper respiratory tract infection, n of subjects: 6
  Vomiting, % of subjects: (10.0) %
  Vomiting, n of subjects: 7
  Withdrawal due to TEAE, % of subjects: (10.9) %
  Withdrawal due to TEAE, n of subjects: 7
[3]
  Abdominal pain upper, % of subjects: (15.0) %
  Abdominal pain upper, n of subjects: 3
  Any Serious TEAE, n (%) of subjects: 1 (5.0) n (%)
  Any TEAE, % of subjects: (100.0) %
  Any TEAE, n of subjects: 20
  Arthralgia, % of subjects: (20.0) %
  Arthralgia, n of subjects: 4
  Asthenia, % of subjects: (5.0) %
  Asthenia, n of subjects: 1
  Back pain, % of subjects: (15.0) %
  Back pain, n of subjects: 3
  Constipation, n of subjects: 0
  Contusion, % of subjects: (30.0) %
  Contusion, n of subjects: 6
  Cough, % of subjects: (10.0) %
  Cough, n of subjects: 2
  Deaths, n of subjects: 0
  Diarrhoea, % of subjects: (25.0) %
  Diarrhoea, n of subjects: 5
  Dizziness, % of subjects: (15.0) %
  Dizziness, n of subjects: 3
  Dose interruption due to TEAE, % of subjects: (10.0) %
  Dose interruption due to TEAE, n of subjects: 2
  Dyspnoea, % of subjects: (5.0) %
  Dyspnoea, n of subjects: 1
  Ecchymosis, % of subjects: (10.0) %
  Ecchymosis, n of subjects: 2
  Epistaxis, % of subjects: (40.0) %
  Epistaxis, n of subjects: 8
  Fatigue, % of subjects: (35.0) %
  Fatigue, n of subjects: 7
  Gingival bleeding, % of subjects: (20.0) %
  Gingival bleeding, n of subjects: 4
  Headache, % of subjects: (40.0) %
  Headache, n of subjects: 8
  Insomnia, % of subjects: (5.0) %
  Insomnia, n of subjects: 1
  Migraine, % of subjects: (10.0) %
  Migraine, n of subjects: 2
  Mouth haemorrhage, % of subjects: (10.0) %
  Mouth haemorrhage, n of subjects: 2
  Nausea, % of subjects: (20.0) %
  Nausea, n of subjects: 4
  Pain in extremity, % of subjects: (10.0) %
  Pain in extremity, n of subjects: 2
  Petechiae, % of subjects: (10.0) %
  Petechiae, n of subjects: 2
  Platelet count increased, % of subjects: (10.0) %
  Platelet count increased, n of subjects: 2
  Serious TEAE Cerebrovascular accident, n (%) of subjects: 1 (5.0) n (%)
  Serious TEAE Chest pain, n (%) of subjects: 1 (5.0) n (%)
  Serious TEAE Diarrhoea, n (%) of subjects: 1 (5.0) n (%)
  Serious TEAE Haemorrhage intracranial, n (%) of subjects: 0 n (%)
  Serious TEAE Lethargy, n (%) of subjects: 0 n (%)
  Serious TEAE Mitral valve incompetence, n (%) of subjects: 1 (5.0) n (%)
  Serious TEAE Myocardial infarction, n (%) of subjects: 0 n (%)
  Serious TEAE Nausea, n (%) of subjects: 0 n (%)
  Serious TEAE Pelvic venous thrombosis, n (%) of subjects: 0 n (%)
  Serious TEAE Platelet count decreased, n (%) of subjects: 0 n (%)
  Serious TEAE Pneumonia, n (%) of subjects: 0 n (%)
  Serious TEAE Pyrexia, n (%) of subjects: 1 (5.0) n (%)
  Serious TEAE Thrombocytopenia, n (%) of subjects: 0 n (%)
  Serious TEAE Transient ischaemic attack, n (%) of subjects: 0 n (%)
  Serious TEAE Vomiting, n (%) of subjects: 1 (5.0) n (%)
  Serious TEAE, % of subjects: (5.0) %
  Serious TEAE, SOC Blood and lymphatic system disorders, n (%) of subjects: 0 n (%)
  Serious TEAE, SOC Cardiac disorders, n (%) of subjects: 1 (5.0) n (%)
  Serious TEAE, SOC Gastrointestinal disorders, n (%) of subjects: 1 (5.0) n (%)
  Serious TEAE, SOC General disorders and administration site conditions, n (%) of subjects: 1 (5.0) n (%)
  Serious TEAE, SOC Infections and infestations, n (%) of subjects: 0 n (%)
  Serious TEAE, SOC Investigations, n (%) of subjects: 0 n (%)
  Serious TEAE, SOC Nervous system disorders, n (%) of subjects: 1 (5.0) n (%)
  Serious TEAE, SOC Vascular disorders, n (%) of subjects: 0 n (%)
  Serious TEAE, n of subjects: 1
  Serious treatment-related TEAEs, n of subjects: 0
  Severe (grade 3-4) TEAEs, % of subjects: (35.0) %
  Severe (grade 3-4) TEAEs, n of subjects: 7
  Somnolence, % of subjects: (10.0) %
  Somnolence, n of subjects: 2
  Suspected drug-related AEs, % of subjects: (65.0) %
  Suspected drug-related AEs, n of subjects: 13
  Upper respiratory tract infection, % of subjects: (15.0) %
  Upper respiratory tract infection, n of subjects: 3
  Vomiting, % of subjects: (20.0) %
  Vomiting, n of subjects: 4
  Withdrawal due to TEAE, % of subjects: (10.0) %
  Withdrawal due to TEAE, n of subjects: 2
Both studies combined
  treated subjects with thromboembolic events: approximately 6%
Both studies combined, doses of 10 mg/day or higher
  subjects with thromboembolic events: 4 subjects
Combined studies
  subjects with TEAE possibly or probably treatment related: 64.1%
  subjects with TEAEs that led to interruption of study treatment: 8 subjects
  subjects with TEAEs that led to premature discontinuation of study treatment: Seven
Combined studies, 64 subjects
  subjects who experienced one or more TEAEs: 96.9%
[4]
  Epistaxis: 23.4%
  Fatigue: 34.4%
  Headache: 32.8%
  Vomiting: 10.9%
  arthralgia: 14.1%
  contusion: 18.8%
  diarrhea: 14.1%
  gingival bleeding: 10.9%
Combined studies, all
  serious TEAEs: 16 cases
  subjects reporting serious TEAEs: Five
During the study
  deaths: No deaths occurred
During this study
  neoplastic events of interest: Three
Lower ⅓ dose level group
  serious TEAEs: 1 cases
  subjects reporting serious TEAEs: 1 subjects
Middle ⅓ dose level group
  serious TEAEs: 9 cases
  subjects reporting serious TEAEs: 3 subjects
[5]
  serum ALT: 210 U/L
  serum AST: 143 U/L
[6]
  ALT: 421 U/L
  AST: 431 U/L
Upper ⅓ dose level group
  serious TEAEs: 6 cases
  subjects reporting serious TEAEs: 1 subjects
